# System: participants with SSc-RP
# Experiment: Scleroderma Health Assessment Questionnaire (SHAQ): disability indices and visual analog scales
# Format: in vivo, human
# Text: The standard, validated, patient reported outcome measures tool for SSc patients, the Scleroderma Health Assessment Questionnaire (SHAQ), will be used to assess the participant qualify of life. Details are attached in the Appendix. The participant quality of life will be scored, and a disability index calculated for each questionnaire completed by the patient at Screening and each in-clinic visit. The absolute change in participant quality of life from baseline to the end of each dosing period will be calculated similar to frequency data as before.
# The SHAQ includes a Raynaud's VAS, which will be reported at screening and each in-clinic visit. The absolute change in Raynaud-VAS, assessed by the participants response to the SHAQ question ‘In the past 7 days, how much have your Raynaud's interfered with your daily activities?’ at baseline and the end of each dosing period will be calculated similar to frequency data as before.
# The SHAQ is used to calculate a Disability Index to assess the participant qualify of life. The eight categories assessed by the Disability Index are 1) dressing and grooming, 2) arising, 3) eating, 4) walking, 5) hygiene, 6) reach, 7) grip, and 8) common daily activities. For each of these categories, patients report the amount of difficulty they have in performing two or three specific activities.
# There are four possible responses for the Disability Index questions: • Without any difficulty=0 • With some difficulty=1 • With much difficulty=2 • Unable to do=3. • The highest score reported by the patient for any component question of the eight categories determines the score for that category. • If a component question is left blank or the response is too ambiguous to assign a score, then the score for that category is determined by the remaining completed question(s). • If all component questions are blank or if more than one answer is given, then follow up with the respondent is required. • If the respondent's mark is between the response columns, then move it to the closest one. If it's directly between the two, move it to the higher one.
# Each of the disability items on the SHAQ has a companion aids/devices variable that is used to record what type(s) of assistance, if any, the participant uses for his/her usual activities. These variables (see below) are coded as follows: • 0=No assistance is needed. • 1=A special device is used by the patient in his/her usual activities. • 2=The patient usually needs help from another person. • 3=The patient usually needs BOTH a special device AND help from another person.
# The scoring variables and scoring rules permit the computation of two disability indices, the Standard Disability Index and the Alternative Disability Index.
# This question results in a new set of category scores that are computed by adjusting the score for each category, if necessary, based on the patient's use of an aid or device or assistance for that category. If either devices and/or help from another person are checked for a category, the score is set to “2”, unless the score is already “3” (i.e., scores of “0” or “1” are increased to “2”). For example, if the highest score for the dressing category is “1”, and the patient says they use a device for dressing, the computed category score would be “2”. The sum of the computed categories scores is then calculated and divided by the number of categories answered. This gives a score in the 0 to 3 range.
# The aid and device variables are not used to calculate the alternative disability index; it is calculated by adding the scores for each of the categories and dividing by the number of categories answered. This gives a score in the 0 to 3 range.
# The standard, validated, patient reported outcome measures tool for SSc patients, the SHAQ, was collected at the time points specified in the study schedules (FIG. 2 and FIGS. 4A and 4B) to assess the participant's quality of life. The SHAQ included a Raynaud's VAS that will also be reported separately.
# [1] = Cilnidipine 20 mg, PP Population Part A, SSc patients
# [2] = Day 12, Cilnidipine 10 mg (N = 4), Patients with Diagnosis of SSc, PP Population Part A
# [3] = Day 12, Cilnidipine 20 mg (N = 4), Patients with Diagnosis of SSc, PP Population Part A
# [4] = Day 12, Modified ITT, Part A, dose Cilnidipine 10 mg, Tadalafil 5 mg, or 10 mg + 5 mg
# [5] = Day 12, Modified ITT, Part A, dose Cilnidipine 20 mg, or 20 mg + Tadalafil 5 mg
compound,measurement,setting,value
"COCCOC(=O)C1=C(C)NC(C)=C(C(=O)OC/C=C/c2ccccc2)C1c1cccc([N+](=O)[O-])c1 (stereo not shown) [Cilnidipine, cilnidipine]","SHAQ Visual Analogue Scale - Finger Ulcers, In-Clinic Visit (Day 12), Mean",[1],0.650
same,"SHAQ Visual Analogue Scale - Finger Ulcers, In-Clinic Visit (Day 12), Median",[1],0.350
same,"SHAQ Visual Analogue Scale - Intestinal Problems, In-Clinic Visit (Day 12), Mean",[1],0.850
same,"SHAQ Visual Analogue Scale - Intestinal Problems, In-Clinic Visit (Day 12), Median",[1],0.650
same,"SHAQ Visual Analogue Scale - Overall Disease Severity, In-Clinic Visit (Day 12), Mean",[1],1.125
same,"SHAQ Visual Analogue Scale - Overall Disease Severity, In-Clinic Visit (Day 12), Median",[1],1.300
same,"SHAQ Visual Analogue Scale - Pain, In-Clinic Visit (Day 12), Mean",[1],1.875
same,"SHAQ Visual Analogue Scale - Pain, In-Clinic Visit (Day 12), Median",[1],1.400
same,"SHAQ Visual Analogue Scale - Raynaud's, In-Clinic Visit (Day 12), Mean",[1],1.875
same,"SHAQ Visual Analogue Scale - Raynaud's, In-Clinic Visit (Day 12), Median",[1],1.250
same,"SHAQ Alternative Disability Index, Change from Baseline, Mean",[2],0.063
same,"SHAQ Alternative Disability Index, Change from Baseline, Median",[2],0.000
same,"SHAQ Alternative Disability Index, Percent Change from Baseline, Mean",[2],15.87%
same,"SHAQ Alternative Disability Index, Percent Change from Baseline, Median",[2],15.87%
same,"SHAQ Standard Disability Index, Change from Baseline, Mean",[2],0.000
same,"SHAQ Standard Disability Index, Change from Baseline, Median",[2],0.000
same,"SHAQ Standard Disability Index, Percent Change from Baseline, Mean",[2],0.00%
same,"SHAQ Standard Disability Index, Percent Change from Baseline, Median",[2],0.00%
same,"SHAQ Alternative Disability Index, Change from Baseline, Mean",[3],0.000
same,"SHAQ Alternative Disability Index, Change from Baseline, Median",[3],−0.063
same,"SHAQ Alternative Disability Index, Percent Change from Baseline, Mean",[3],5.56%
same,"SHAQ Alternative Disability Index, Percent Change from Baseline, Median",[3],−33.33%
same,"SHAQ Standard Disability Index, Change from Baseline, Mean",[3],−0.063
same,"SHAQ Standard Disability Index, Change from Baseline, Median",[3],−0.063
same,"SHAQ Standard Disability Index, Percent Change from Baseline, Mean",[3],−26.67%
same,"SHAQ Standard Disability Index, Percent Change from Baseline, Median",[3],−33.33%
same,"SHAQ Alternative Disability Index, Change from Baseline, Mean",[4],0.063
same,"SHAQ Alternative Disability Index, Change from Baseline, Median",[4],0.000
same,"SHAQ Alternative Disability Index, Percent Change from Baseline, Mean",[4],15.87%
same,"SHAQ Alternative Disability Index, Percent Change from Baseline, Median",[4],15.87%
same,"SHAQ Finger Ulcers, Change from Baseline, Mean",[4],−0.425
same,"SHAQ Finger Ulcers, Change from Baseline, Median",[4],−0.350
same,"SHAQ Finger Ulcers, Percent Change from Baseline, Mean",[4],−69.44%
same,"SHAQ Finger Ulcers, Percent Change from Baseline, Median",[4],−69.44%
same,"SHAQ Standard Disability Index, Change from Baseline, Mean",[4],0.0
same,"SHAQ Standard Disability Index, Change from Baseline, Median",[4],0.000
same,"SHAQ Standard Disability Index, Percent Change from Baseline, Mean",[4],0.0%
same,"SHAQ Standard Disability Index, Percent Change from Baseline, Median",[4],0.00%
same,"SHAQ Visual Analog Scale-Breathing Problems, Change from Baseline, Mean",[4],−0.300
same,"SHAQ Visual Analog Scale-Breathing Problems, Change from Baseline, Median",[4],0.000
same,"SHAQ Visual Analog Scale-Breathing Problems, Percent Change from Baseline, Mean",[4],−16.00%
same,"SHAQ Visual Analog Scale-Breathing Problems, Percent Change from Baseline, Median",[4],−16.00%
same,"SHAQ Visual Analog Scale-Intestinal Problems, Change from Baseline, Mean",[4],−1.875
same,"SHAQ Visual Analog Scale-Intestinal Problems, Change from Baseline, Median",[4],−1.550
same,"SHAQ Visual Analog Scale-Intestinal Problems, Percent Change from Baseline, Mean",[4],−77.37%
same,"SHAQ Visual Analog Scale-Intestinal Problems, Percent Change from Baseline, Median",[4],−88.00%
same,"SHAQ Visual Analog Scale-Pain, Change from Baseline, Mean",[4],−0.100
same,"SHAQ Visual Analog Scale-Pain, Change from Baseline, Median",[4],0.000
same,"SHAQ Visual Analog Scale-Pain, Percent Change from Baseline, Mean",[4],−9.88%
same,"SHAQ Visual Analog Scale-Pain, Percent Change from Baseline, Median",[4],0.00%
same,"SHAQ Visual Analog Scale-Raynaud's, Change from Baseline, Mean",[4],0.325
same,"SHAQ Visual Analog Scale-Raynaud's, Change from Baseline, Median",[4],0.350
same,"SHAQ Visual Analog Scale-Raynaud's, Percent Change from Baseline, Mean",[4],11.36%
same,"SHAQ Visual Analog Scale-Raynaud's, Percent Change from Baseline, Median",[4],−2.27%
same,"SHAQ Alternative Disability Index, Change from Baseline, Mean",[5],−0.083
same,"SHAQ Alternative Disability Index, Change from Baseline, Median",[5],−0.125
same,"SHAQ Alternative Disability Index, Percent Change from Baseline, Mean",[5],−41.67%
same,"SHAQ Alternative Disability Index, Percent Change from Baseline, Median",[5],−41.67%
same,"SHAQ Finger Ulcers, Change from Baseline, Mean",[5],−0.933
same,"SHAQ Finger Ulcers, Change from Baseline, Median",[5],0.000
same,"SHAQ Finger Ulcers, Percent Change from Baseline, Mean",[5],35.29%

# Source: patent publication US20240358693A1, “METHODS OF TREATING PAIN” (Aisa Pharma, Inc., priority 2023, published 2024)
